Laboratory results from US5780675A, “Deoxygossylic compounds” (The University of New Mexico, priority 1995, dated 1998).
“Also recorded” adds a separate entry of the source. Like-named read-outs stand apart in the source and are kept apart here.

Columns and labels:
[1] = system: H9/HIV-IIIB strain of the HIV-1 virus; experiment: Inhibition of HIV replication, focal immunoassay (foci reduction) in HT46c cells; assay type: cell-based; conditions: for anti-HIV activity (in words): in vitro, compared with BDGA and/or GIL where stated; for anti-HIV activity (in words) / EC50: H9/HIV-IIIB in HT46c cells; for reduction in foci (in words): 5 μM, GIL and BDGA compared; for EC50: Human immunodeficiency virus 1, 72 h, 3 days at 37° C.
Experimental: 1,1'-bisdeoxygossypol (BDG), 1,1'-bisdeoxygossylic acid (BDGA), 8-deoxyhemigossypol (DHG) and 8-deoxyhemigossylic acid (DHGA) were synthesized and tested for their ability to inhibit the replication of HIV in vitro. The EC50 for BDGA was <1 μM and its threshold cytotoxicity was approximately 20 μM. […] Like BDGA, the Ec50 for GIL was <1 μM. […] BDG, on the other hand, was ineffective at 1 μM and destroyed >80% of the cell monolayer at 5 μM.
The anti-HIV assay used was based on a published procedure (J. Virol. 62:3779-3788, 1988) using HT46c (HeLaT4+) cells as host cells for the H9/HIV-IIIB strain of the HIV-1 virus. The cells were seeded into 6-well plates, 5×10^4 cells/well, in RPMI 1640 with 10% FBS and allowed to attach overnight. After treatment of the wells with DEAE-dextran, stock virus was added at a concentration that produces 100-200 foci/well on day 3 in positive control wells. Test compounds were added, and plates incubated for 3 days at 37° C., 5% CO2. Monolayers were fixed with methanol and wells analyzed with a focal immunoassay (FIA). The primary reagent used in the FIA was a polyclonal antibody preparation of sera from AIDS patients. The secondary reagent was a goat anti-human IgG antibody tagged with horseradish peroxidase. The substrate was 3-amino-9-ethylcarbazole in sodium acetate buffer with hydrogen peroxide. Each compound was tested at concentrations of 0.01, 0.1, 1.0, 5.0 and 20 μM. GIL was tested as a standard for comparison.

human serum albumin [2] = target: T1, human serum albumin (Homo sapiens, UniProt P02768); experiment: Binding to human serum albumin, fluorescence quenching titration; conditions: 25° C., pH 7.4, read-out: Dissociation constant (Kd) for binding to human serum albumin
Experimental: Table I below lists the dissociation constants (Kds) for binding of compounds 1-6 to human serum albumin. The Kd for gossypol was determined by multiple methods as reported in FEBS Lett. 157:28-30, 1983. The Kds for compounds 2-6 were determined by fluorescence quenching titrations.
These experiments were carried out at 25° C. in 2 mL volumes of 0.2M potassium phosphate buffer (pH 7.4) containing 0.1M sodium chloride. Aliquots of a 1 mM stock solution of test compound in DMSO were added to a 10 μM solution of human serum albumin in the buffer. Fluorescence was measured with a Perkin Elmer model LS 50 luminescence spectrometer. The Kds were determined by plotting the reciprocal of free ligand concentration versus the reciprocal of fractional quenching. This plot provides -1/Kd as the x-intercept. Details of the calculations employed are set forth in J. Pharm. Sci. 77:237-240 (1988).

[3] = Cytotoxicity: changes in cell morphology or loss of monolayer adherence in HT46c cells; assay type: cell-based; conditions: human; for MCC at 72 h: HT46c cells, 3 days, lowest concentration with detectable morphology change or loss of monolayer adherence, read-out: threshold cytotoxicity
HT46c (HeLaT4+) cells = experiment: as above; assay type: cell-based; conditions: for cytotoxicity (in words): HT46c cells, compared with BDGA and/or GIL where stated; for toxicity (in words): 5.0 μM
[4] = previous or background findings; GIL compared with gossypol; cited from earlier work
HIV = conditions: previously found, in vitro, similar assays; cited from earlier work
human serum albumin [5] = target: T1, human serum albumin; conditions: gossypol, determined by multiple methods as reported in FEBS Lett. 157:28-30, 1983; read-out: Dissociation constant (Kd) for binding to human serum albumin; cited from earlier work

T1 sequence (P02768 25-609): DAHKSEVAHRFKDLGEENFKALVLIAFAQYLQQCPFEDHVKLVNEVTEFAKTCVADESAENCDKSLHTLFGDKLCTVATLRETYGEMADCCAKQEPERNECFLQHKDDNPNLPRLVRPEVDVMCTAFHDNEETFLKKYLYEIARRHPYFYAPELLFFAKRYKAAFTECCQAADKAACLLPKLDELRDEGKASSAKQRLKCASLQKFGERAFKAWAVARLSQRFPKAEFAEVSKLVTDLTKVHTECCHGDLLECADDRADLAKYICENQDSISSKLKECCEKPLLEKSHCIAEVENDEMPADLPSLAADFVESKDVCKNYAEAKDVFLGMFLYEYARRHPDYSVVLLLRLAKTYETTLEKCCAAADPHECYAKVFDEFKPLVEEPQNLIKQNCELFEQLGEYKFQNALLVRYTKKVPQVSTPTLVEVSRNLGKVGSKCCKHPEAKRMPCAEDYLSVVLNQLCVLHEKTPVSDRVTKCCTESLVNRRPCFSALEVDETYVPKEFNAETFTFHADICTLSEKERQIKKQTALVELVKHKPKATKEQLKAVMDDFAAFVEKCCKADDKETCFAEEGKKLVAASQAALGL

SMILES	Kd (human serum albumin [2]) [µM]	EC50 [1] [µM]	anti-HIV activity (in words) [1]	cytotoxicity (in words) (HT46c (HeLaT4+) cells)	reduction in foci (in words) [1]	cytotoxicity (in words), previous findings [4]	toxicity (in words) (HT46c (HeLaT4+) cells)	MCC at 72 h [3] [µM]	also measured
Cc1cc2c(C(C)C)c(O)c(O)c(C=O)c2cc1-c1cc2c(C=O)c(O)c(O)c(C(C)C)c2cc1C [BDG, 6,6',7,7'-Tetrahydroxy-3,3'-dimethyl-5,5'-bis(1-methylethyl) [2,2'-binaphthalene]-8,8'-dicarboxaldehyde]	1.2	–	less effective against HIV	much more cytotoxic than BDGA	–	–	–	–	anti-HIV effect (in words) ([1]; 1 μM): ineffective; cytotoxicity at 5 µM ([3]; ht46c cells, 5 μM, read-out: cell monolayer destroyed): > 80%
Cc1cc2c(C(C)C)c(O)c(O)c(C=O)c2c(O)c1-c1c(C)cc2c(C(C)C)c(O)c(O)c(C=O)c2c1O [gossypol]	–	–	–	–	–	significantly cytotoxic at effective dosage levels	–	–	Kd (human serum albumin [5]): 0.09 µM
Cc1cc2c(C(C)C)c(O)c(O)c(C(=O)O)c2cc1-c1cc2c(C(=O)O)c(O)c(O)c(C(C)C)c2cc1C [BDGA, 6,6',7,7'-Tetrahydroxy-3,3'-dimethyl-5,5'-bis(1-methylethyl) [2,2'-binaphthalene]-8,8'-dicarboxylic Acid]	1.5	< 1	approximately as effective as GIL	–	same reduction in foci	–	No toxicity was noted	~20	monolayer destruction (in words) (HT46c (HeLaT4+) cells; 20 μM): Some signs of monolayer destruction

The next lines start with results.

Kd (human serum albumin [2]) [µM]	EC50 [1] [µM]	SMILES	anti-HIV activity (in words) [1]	cytotoxicity (in words) (HT46c (HeLaT4+) cells)	reduction in foci (in words) [1]	cytotoxicity (in words), previous findings [4]	toxicity (in words) (HT46c (HeLaT4+) cells)	MCC at 72 h [3] [µM]	also measured
3	< 1	Cc1cc2c(C(C)C)c(O)c(O)c3c2c(c1-c1c(C)cc2c(C(C)C)c(O)c(O)c4c2c1OC4=N)OC3=N [GIL, reference compound]	–	–	same reduction in foci	less cytotoxic than gossypol	No toxicity was noted	–	anti-HIV activity relative to gossypol (in words) (HIV): more active; also recorded: more effective than gossypol
5.28	–	Cc1ccc2c(C(=O)O)c(O)c(O)c(C(C)C)c2c1 [DHGA, 2,3-dihydroxy-6-methyl-4-(1-methylethyl)-1-naphthoic Acid]	ineffective against HIV	very low cytotoxicity	–	–	–	–	effect on viral replication (in words) ([1]; even at 20 μM): no observable effect on viral replication; effect on cell morphology (in words) (HT46c (HeLaT4+) cells; even at 20 μM): no observable effect on viral replication or cell morphology
0.66	–	Cc1ccc2c(C=O)c(O)c(O)c(C(C)C)c2c1 [DHG, 2,3-dihydroxy-6-methyl-4-(1-methylethyl)-1-naphthaldehyde]	some anti-HIV activity; also recorded: less active	more cytotoxic	–	–	–	5	–
